Where “and” joins values, the source holds several entries; their conditions need not be identical. Identical values can stand only once. Toxic doses and inconclusive results are not listed.
Tested on: P388 leukemia ip, CD2F1 mice, survival T/C
Experiment: NCI In Vivo Anticancer Drug Screen. Data for tumor model P388 Leukemia (intraperitoneal) in CD2F1 (CDF1) mice
Conditions: endpoint: median survival time, higher = longer survival
Procedure, shortened: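 Mice carrying the transplanted tumor received test compound or vehicle. Survival was recorded in each group, and the value is the treated-group measurement divided by that of the vehicle-treated control group.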

[1] = dose: 50.0 mg/kg/injection, schedule: Q01DX005 (ip), vehicle: Klucel (hydroxypropylcellulose) (HPC)
[2] = dose: 100.0 mg/kg/injection, schedule: Q01DX005 (ip), vehicle: Klucel (hydroxypropylcellulose) (HPC)
[3] = dose: 200.0 mg/kg/injection, schedule: Q01DX005 (ip), vehicle: Klucel (hydroxypropylcellulose) (HPC)
[4] = dose: 12.5 mg/kg/injection, schedule: Q01DX005 (ip), vehicle: Klucel (hydroxypropylcellulose) (HPC)
[5] = dose: 25.0 mg/kg/injection, schedule: Q01DX005 (ip), vehicle: Klucel (hydroxypropylcellulose) (HPC)
[6] = dose: 60.0 mg/kg/injection, schedule: Q01DX005 (ip), vehicle: saline with Tween-80
[7] = dose: 120.0 mg/kg/injection, schedule: Q01DX005 (ip), vehicle: saline with Tween-80
[8] = dose: 240.0 mg/kg/injection, schedule: Q01DX005 (ip), vehicle: saline with Tween-80

COC1C(C)OC(OC2CC(C)(O)Cc3cc4c(c(O)c32)C(=O)c2c(O)cc3c(c2C4=O)OC2OC3(C)C(O)C(N(C)C)C2O)C(OC)C1(C)OC (stereo not given) was tested, and the T/C (dose: 0.6 mg/kg/injection, schedule: Q01DX009 (ip), vehicle: other) was 124 % of control, the T/C (dose: 0.75 mg/kg/injection, schedule: Q04DX003 (ip), vehicle: saline) was 121 % of control and the T/C (dose: 1.0 mg/kg/injection, schedule: Q01DX009 (ip), vehicle: saline) was 151 % of control. The T/C (dose: 1.0 mg/kg/injection, schedule: Q04DX003 (ip), vehicle: saline) was 121 % of control, the T/C (dose: 1.25 mg/kg/injection, schedule: Q01DX009 (ip), vehicle: other) was 151 % of control and the T/C (dose: 1.25 mg/kg/injection, schedule: Q04DX003 (ip), vehicle: other) was 124 % of control. For the same compound, the T/C (dose: 1.5 mg/kg/injection, schedule: Q01DX009 (ip), vehicle: saline) was 160 % of control, the T/C (dose: 2.0 mg/kg/injection, schedule: Q01DX009 (ip), vehicle: saline) was 160 % of control and the T/C (dose: 2.5 mg/kg/injection, schedule: Q01DX009 (ip), vehicle: saline) was 174 % of control. For the same compound, the T/C (dose: 2.5 mg/kg/injection, schedule: Q04DX003 (ip), vehicle: other) was 153 % of control, the T/C (dose: 3.0 mg/kg/injection, schedule: Q01DX009 (ip), vehicle: saline) was 169 % of control and the T/C (dose: 4.0 mg/kg/injection, schedule: Q01DX009 (ip), vehicle: saline) was 180 % of control. For the same compound, the T/C (dose: 5.0 mg/kg/injection, schedule: Q01DX009 (ip), vehicle: saline) was 193 % of control, the T/C (dose: 5.0 mg/kg/injection, schedule: Q04DX003 (ip), vehicle: saline) was 150 % of control and the T/C (dose: 6.0 mg/kg/injection, schedule: Q04DX003 (ip), vehicle: water) was 153 % of control. For the same compound, the T/C (dose: 10.0 mg/kg/injection, schedule: Q04DX003 (ip), vehicle: other) was 165 % of control, the T/C (dose: 10.0 mg/kg/injection, schedule: Q04DX003 (ip), vehicle: saline with Tween-80) was 157 % of control and the T/C (dose: 10.0 mg/kg/injection, schedule: Q04DX003 (ip), vehicle: saline) was 156 % of control. The T/C (dose: 10.0 mg/kg/injection, schedule: Q04DX003 (ip), vehicle: water) was 157 % of control, the T/C (dose: 12.0 mg/kg/injection, schedule: Q04DX003 (ip), vehicle: saline) was 158 % of control and the T/C (dose: 12.5 mg/kg/injection, schedule: Q01DX001 (sc), vehicle: other) was 103 % of control. The T/C (dose: 15.0 mg/kg/injection, schedule: Q04DX003 (ip), vehicle: saline with Tween-80) was 150 % of control, the T/C (dose: 16.0 mg/kg/injection, schedule: Q04DX003 (ip), vehicle: saline) was 112 % of control and the T/C (dose: 20.0 mg/kg/injection, schedule: Q04DX003 (ip), vehicle: other) was 124 % of control. The T/C (dose: 25.0 mg/kg/injection, schedule: Q01DX001 (ip), vehicle: other) was 157 % of control and 175 % of control, the T/C (dose: 25.0 mg/kg/injection, schedule: Q01DX001 (sc), vehicle: other) was 100 % of control and 102 % of control and the T/C (dose: 50.0 mg/kg/injection, schedule: Q01DX001 (sc), vehicle: other) was 103 % of control and 105 % of control. The T/C (dose: 100.0 mg/kg/injection, schedule: Q01DX001 (sc), vehicle: other) was 99 % of control, the T/C (dose: 625.0 micrograms/kg/injection, schedule: Q01DX009 (ip), vehicle: other) was 118 % of control and the T/C (dose: 1250.0 micrograms/kg/injection, schedule: Q01DX009 (ip), vehicle: other) was 157 % of control. The T/C (dose: 2500.0 micrograms/kg/injection, schedule: Q01DX009 (ip), vehicle: other) was 157 % of control and 172 % of control and the T/C (dose: 5000.0 micrograms/kg/injection, schedule: Q01DX009 (ip), vehicle: other) was 90 % of control.
O=c1oc(-c2cc([N+](=O)[O-])cc([N+](=O)[O-])c2Cl)nc2ccccc12 was tested, and the T/C (dose: 12.5 mg/kg/injection, schedule: Q01DX009 (ip), vehicle: Klucel (hydroxypropylcellulose) (HPC)) was 103 % of control and 110 % of control, the T/C (dose: 25.0 mg/kg/injection, schedule: Q01DX009 (ip), vehicle: Klucel (hydroxypropylcellulose) (HPC)) was 105 % of control and 110 % of control and the T/C (dose: 50.0 mg/kg/injection, schedule: Q01DX009 (ip), vehicle: Klucel (hydroxypropylcellulose) (HPC)) was 103 % of control and 94 % of control. For the same compound, the T/C (dose: 100.0 mg/kg/injection, schedule: Q01DX009 (ip), vehicle: Klucel (hydroxypropylcellulose) (HPC)) was 105 % of control.
For CCCCCCN(CCCCCC)/C(N)=N/O, the T/C (dose: 5.0 mg/kg/injection, schedule: Q01DX009 (ip), vehicle: saline with Tween-80) was 113 % of control, the T/C (dose: 10.0 mg/kg/injection, schedule: Q01DX009 (ip), vehicle: saline with Tween-80) was 105 % of control and the T/C (dose: 20.0 mg/kg/injection, schedule: Q01DX009 (ip), vehicle: saline with Tween-80) was 116 % of control.
With CS(=O)(=O)OC1C(COC(=O)c2ccccc2)OC2C1Oc1nc(=O)ccn12 (stereo not given) the T/C [1] was 98 % of control, the T/C [2] was 99 % of control and the T/C [3] was 101 % of control.
With CCCCC1SC2=NCCCN2C1(O)c1ccc(Cl)cc1 (stereo not given) the T/C (dose: 50.0 mg/kg/injection, schedule: Q01DX009 (ip), vehicle: saline with Tween-80) was 105 % of control and the T/C (dose: 100.0 mg/kg/injection, schedule: Q01DX009 (ip), vehicle: saline with Tween-80) was 106 % of control.
CCN(CC)c1nc(Cl)nc(NC(C)C)n1 was tested, and the T/C (dose: 100.0 mg/kg/injection, schedule: Q04DX003 (ip), vehicle: saline with Tween-80) was 100 % of control and the T/C (dose: 200.0 mg/kg/injection, schedule: Q04DX003 (ip), vehicle: saline with Tween-80) was 95 % of control.
COc1cc2c(NCCCCCCO[N+](=O)[O-])ncnc2c(OC)c1OC was tested, and the T/C [1] was 100 % of control, the T/C [2] was 103 % of control and the T/C [3] was 100 % of control.
With CON=C1C(C)(C)C(=NOC)C1(C)C the T/C [4] was 90 % of control, the T/C [5] was 86 % of control and the T/C [1] was 99 % of control.
For CCOc1ccc(N2CC(=O)N3CCCC(C)N3C(=O)C2)cc1 (stereo not given), the T/C (dose: 50.0 mg/kg/injection, schedule: Q01DX005 (ip), vehicle: saline with Tween-80) was 101 % of control, the T/C (dose: 100.0 mg/kg/injection, schedule: Q01DX005 (ip), vehicle: saline with Tween-80) was 101 % of control and the T/C (dose: 200.0 mg/kg/injection, schedule: Q01DX005 (ip), vehicle: saline with Tween-80) was 103 % of control.
COC(=O)n1c(=O)ccc(=O)n1C(=O)OC was tested, and the T/C (dose: 50.0 mg/kg/injection, schedule: Q01DX001 (ip), vehicle: saline) was 100 % of control and 103 % of control, the T/C (dose: 100.0 mg/kg/injection, schedule: Q01DX001 (ip), vehicle: saline) was 98 % of control and 100 % of control and 106 % of control and the T/C (dose: 200.0 mg/kg/injection, schedule: Q01DX001 (ip), vehicle: saline) was 100 % of control and 106 % of control and 115 % of control. The T/C (dose: 400.0 mg/kg/injection, schedule: Q01DX001 (ip), vehicle: saline) was 100 % of control and 112 % of control and 122 % of control.
In the case of C1=C(N2CCOCC2)N(c2ccccc2)c2ccccc2N=C1N1CCCC1, the T/C [4] is reported as 100 % of control, the T/C [5] is reported as 91 % of control and the T/C [1] is reported as 103 % of control and 96 % of control.
With O=C(O)/C=C\C(=O)O.OO.[O]=[V] the T/C (dose: 3.75 mg/kg/injection, schedule: Q01DX005 (ip), vehicle: saline with Tween-80) was 100 % of control and the T/C (dose: 15.0 mg/kg/injection, schedule: Q01DX005 (ip), vehicle: saline with Tween-80) was 109 % of control.
COc1ccc(/C(C#N)=C\c2ccc(N(C)C)cc2)cc1 was tested, and the T/C (dose: 50.0 mg/kg/injection, schedule: Q04DX003 (ip), vehicle: Klucel (hydroxypropylcellulose) (HPC)) was 108 % of control, the T/C (dose: 100.0 mg/kg/injection, schedule: Q04DX003 (ip), vehicle: Klucel (hydroxypropylcellulose) (HPC)) was 105 % of control and the T/C (dose: 200.0 mg/kg/injection, schedule: Q04DX003 (ip), vehicle: Klucel (hydroxypropylcellulose) (HPC)) was 106 % of control. The T/C (dose: 400.0 mg/kg/injection, schedule: Q04DX003 (ip), vehicle: Klucel (hydroxypropylcellulose) (HPC)) was 105 % of control.
For O=C1C(Cl)=C(N2CCOCC2)C(=O)C(Cl)=C1N1CCOCC1, the T/C (dose: 50.0 mg/kg/injection, schedule: Q01DX005 (ip), vehicle: suspension in saline) was 99 % of control and the T/C (dose: 100.0 mg/kg/injection, schedule: Q01DX005 (ip), vehicle: suspension in saline) was 104 % of control.
For Oc1cc2c(cc1C(Nc1ncccn1)c1ccc(F)cc1)OCO2 (stereo not given), the T/C [6] was 99 % of control, the T/C [7] was 91 % of control and the T/C [8] was 92 % of control.
In the case of COc1cccc2c1C(=O)c1c(O)c3c(c(O)c1C2=O)C[C@@](O)(C(C)=O)C[C@@H]3OC1CC(N=CCCCC=NC2CC(O[C@H]3C[C@](O)(C(C)=O)Cc4c(O)c5c(c(O)c43)C(=O)c3c(OC)cccc3C5=O)OC(C)C2O)C(O)C(C)O1 (stereo not given in full), the T/C (dose: 0.5 mg/kg/injection, schedule: Q04DX003 (ip), vehicle: distilled water + Tween-80) is reported as 104 % of control, the T/C (dose: 1.0 mg/kg/injection, schedule: Q04DX003 (ip), vehicle: distilled water + Tween-80) is reported as 110 % of control and the T/C (dose: 2.0 mg/kg/injection, schedule: Q04DX003 (ip), vehicle: distilled water + Tween-80) is reported as 123 % of control. The T/C (dose: 16.0 mg/kg/injection, schedule: Q04DX003 (ip), vehicle: distilled water + Tween-80) was 122 % of control.
O=C(NCCc1ccc(Cl)cc1)c1ccc(Cl)cc1 was tested, and the T/C [6] was 96 % of control, the T/C [7] was 97 % of control and the T/C [8] was 91 % of control.

Source: PubChem BioAssay AID330 (DTP/NCI, 2004)
